Data reported in PubChem BioAssay (NCI).
“And” between values parts separate entries of the source, which are not always exact repeats. Identical values can stand only once.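 Protocol summary: plate cells (96-well), add compound at 5 concentrations, incubate 48 h, interpolate endpoints linearly. GI50 marks 50% less growth. Definition used: TGI = concentration required for complete inhibition of growth.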

Key:
Assay in all cases: NCI-60 cell line screen, 48 h
KM12 colon = test system: KM12 colon
SW-620 colon = test system: SW-620 colon
ACHN renal = test system: ACHN renal
SN12C renal = test system: SN12C renal
SF-295 CNS = test system: SF-295 CNS
SK-MEL-28 melanoma = test system: SK-MEL-28 melanoma
MALME-3M melanoma = test system: MALME-3M melanoma
TK-10 renal = test system: TK-10 renal
A549 NSCLC = test system: A549 NSCLC
NCI-H522 lung = test system: NCI-H522 lung

## CCc1cccc(CC)c1NC(=O)C1=C(C)NC(C)=C(C(=O)Nc2c(CC)cccc2CC)C1c1ccc([N+](=O)[O-])cc1
KM12 colon
  TGI: 48.8 µM
SW-620 colon
  TGI: 59.1 µM
ACHN renal
  TGI: > 100 µM
SN12C renal
  TGI: > 100 µM
SF-295 CNS
  TGI: 38.6 µM
SK-MEL-28 melanoma
  TGI: 39.9 µM
MALME-3M melanoma
  TGI: 46.8 µM
TK-10 renal
  TGI: 82.5 µM
A549 NSCLC
  TGI: > 100 µM
NCI-H522 lung
  TGI: 40.2 µM

## Cc1c(C(=O)/C=C/c2ccc(N(C)C)cc2)c(=O)n(-c2ccccc2)n1C
KM12 colon
  TGI: > 100 µM
SW-620 colon
  TGI: > 100 µM
ACHN renal
  TGI: > 100 µM
SN12C renal
  TGI: > 100 µM
SF-295 CNS
  TGI: > 100 µM
SK-MEL-28 melanoma
  TGI: > 100 µM
MALME-3M melanoma
  TGI: > 100 µM
TK-10 renal
  TGI: > 100 µM
A549 NSCLC
  TGI: > 100 µM
NCI-H522 lung
  TGI: > 100 µM

## CC1=NN(C(=O)c2ccc([N+](=O)[O-])cc2)C(=O)C1N=Nc1ccccc1C(=O)O (stereo not drawn)
KM12 colon
  TGI: > 100 µM
SW-620 colon
  TGI: > 100 µM
ACHN renal
  TGI: > 100 µM
SN12C renal
  TGI: > 100 µM
SF-295 CNS
  TGI: > 100 µM
SK-MEL-28 melanoma
  TGI: > 100 µM
MALME-3M melanoma
  TGI: > 100 µM
TK-10 renal
  TGI: > 100 µM
A549 NSCLC
  TGI: > 100 µM
NCI-H522 lung
  TGI: > 100 µM

## Cc1cccc(C)c1NC(=O)Nc1ccc(S(N)(=O)=O)cc1
KM12 colon
  TGI: > 100 µM
SW-620 colon
  TGI: > 100 µM
ACHN renal
  TGI: > 100 µM
SN12C renal
  TGI: > 100 µM
SF-295 CNS
  TGI: > 100 µM
SK-MEL-28 melanoma
  TGI: > 100 µM
MALME-3M melanoma
  TGI: > 100 µM
TK-10 renal
  TGI: > 100 µM
A549 NSCLC
  TGI: > 100 µM
NCI-H522 lung
  TGI: > 100 µM

## CN1C(=O)C(=O)c2cc3c(c4c2c1cc1ccccc14)OCO3
KM12 colon
  TGI: 58.9 µM
SW-620 colon
  TGI: > 100 µM
ACHN renal
  TGI: > 100 µM
SN12C renal
  TGI: > 100 µM
SF-295 CNS
  TGI: > 100 µM
SK-MEL-28 melanoma
  TGI: > 100 µM
MALME-3M melanoma
  TGI: > 100 µM
TK-10 renal
  TGI: > 100 µM
A549 NSCLC
  TGI: > 100 µM
NCI-H522 lung
  TGI: > 100 µM

## COc1ccc(-c2c3c(n(C4OC(COC(C)=O)C(OC(C)=O)C(OC(C)=O)C4OC(C)=O)c(=S)c2C#N)CC(C)(C)CC3=O)cc1 (stereo not drawn)
KM12 colon
  TGI: > 100 µM
SW-620 colon
  TGI: > 100 µM
ACHN renal
  GI50: 46.2 µM and > 100 µM
  TGI: > 100 µM
SN12C renal
  TGI: > 100 µM
SF-295 CNS
  TGI: > 100 µM
SK-MEL-28 melanoma
  GI50: 42000 nM and > 100000 nM
  TGI: > 100 µM
MALME-3M melanoma
  TGI: > 100 µM
TK-10 renal
  GI50: 39.5 µM and > 100 µM
  TGI: > 100 µM
A549 NSCLC
  TGI: > 100 µM
NCI-H522 lung
  TGI: > 100 µM

## COC(C(=O)NCCCCNC(=O)C(OC)c1ccccc1)c1ccccc1 (stereo not drawn)
KM12 colon
  TGI: > 100 µM
SW-620 colon
  TGI: > 100 µM
ACHN renal
  TGI: > 100 µM
SN12C renal
  TGI: > 100 µM
SF-295 CNS
  TGI: > 100 µM
SK-MEL-28 melanoma
  TGI: > 100 µM
MALME-3M melanoma
  TGI: > 100 µM
TK-10 renal
  TGI: > 100 µM
A549 NSCLC
  TGI: > 100 µM
NCI-H522 lung
  TGI: > 100 µM

## CC/C(CC(=O)CCC(=O)Nc1ccccc1[N+](=O)[O-])=N/NC(=O)C[n+]1ccccc1
KM12 colon
  TGI: > 100 µM
SW-620 colon
  TGI: > 100 µM
ACHN renal
  TGI: > 100 µM
SN12C renal
  TGI: > 100 µM
SF-295 CNS
  TGI: > 100 µM
SK-MEL-28 melanoma
  TGI: > 100 µM
MALME-3M melanoma
  TGI: > 100 µM
TK-10 renal
  TGI: > 100 µM
A549 NSCLC
  TGI: > 100 µM
NCI-H522 lung
  TGI: > 100 µM

## C=C[C@@]1(O)CCCC2=C(C(=O)OCC)CC[C@]21C
KM12 colon
  TGI: > 100 µM
SW-620 colon
  TGI: > 100 µM
ACHN renal
  TGI: > 100 µM
SN12C renal
  TGI: > 100 µM
SF-295 CNS
  TGI: > 100 µM
SK-MEL-28 melanoma
  TGI: > 100 µM
MALME-3M melanoma
  TGI: > 100 µM
TK-10 renal
  TGI: > 100 µM
A549 NSCLC
  TGI: > 100 µM
NCI-H522 lung
  TGI: > 100 µM

## O=C1C(Cl)C(c2ccccc2O)N1n1cnc2ccccc2c1=O (stereo not drawn)
KM12 colon
  TGI: > 100 µM
SW-620 colon
  TGI: > 100 µM
ACHN renal
  TGI: > 100 µM
SN12C renal
  TGI: 20.4 µM
SF-295 CNS
  TGI: > 100 µM
SK-MEL-28 melanoma
  TGI: > 100 µM
MALME-3M melanoma
  TGI: > 100 µM
TK-10 renal
  TGI: > 100 µM
A549 NSCLC
  TGI: > 100 µM
NCI-H522 lung
  TGI: 93.8 µM

## CCc1cc(CCC(=O)Nc2c(C)cccc2C)[nH]n1
KM12 colon
  TGI: > 100 µM
SW-620 colon
  TGI: > 100 µM
ACHN renal
  TGI: > 100 µM
SN12C renal
  TGI: > 100 µM
SF-295 CNS
  TGI: > 100 µM
SK-MEL-28 melanoma
  TGI: > 100 µM
MALME-3M melanoma
  TGI: > 100 µM
TK-10 renal
  TGI: > 100 µM
A549 NSCLC
  TGI: > 100 µM
NCI-H522 lung
  TGI: > 100 µM

## COc1cccc(C2c3cc4c(cc3OC(N3CCCC3)C2C)OCO4)c1O (stereo not drawn)
KM12 colon
  TGI: 19.8 µM
SW-620 colon
  TGI: > 100 µM
ACHN renal
  TGI: > 88.7 µM
SN12C renal
  TGI: 40.7 µM
SF-295 CNS
  TGI: 15.4 µM
SK-MEL-28 melanoma
  TGI: 81.1 µM
MALME-3M melanoma
  TGI: 58.2 µM
TK-10 renal
  TGI: 40.1 µM
A549 NSCLC
  TGI: > 67.1 µM
NCI-H522 lung
  TGI: 20 µM

## C=C1CCC2C(C)(COC(=O)CC)C(OC(=O)CC)CCC2(C)C1C/C=C1/C(=O)OCC1OC(=O)CC (stereo not drawn)
KM12 colon
  GI50: 1860 nM
  TGI: 3.75 µM
SW-620 colon
  GI50: 1170 nM
  TGI: 2.44 µM
ACHN renal
  GI50: 1.74 µM
  TGI: 3.24 µM
SN12C renal
  GI50: 2630 nM
  TGI: 10.1 µM
SF-295 CNS
  GI50: 1700 nM
  TGI: 3.99 µM
SK-MEL-28 melanoma
  GI50: 1950 nM
  TGI: 4.1 µM
MALME-3M melanoma
  GI50: 2080 nM
  TGI: 3.99 µM
TK-10 renal
  GI50: 2.04 µM
  TGI: 5.59 µM
A549 NSCLC
  GI50: 2030 nM
  TGI: 4.22 µM
NCI-H522 lung
  GI50: 346 nM
  TGI: 1.7 µM

## COc1ccccc1CNCCCN1C(=O)c2ccc3c4c(ccc(c24)C1=O)C(=O)N(CCCCNCCCN)C3=O
KM12 colon
  GI50: 2530 nM
  TGI: 9.7 µM
SW-620 colon
  GI50: 636 nM
  TGI: 2 µM
ACHN renal
  GI50: 3.68 µM
  TGI: 17.3 µM
SN12C renal
  GI50: 704 nM
  TGI: 2.09 µM
SF-295 CNS
  GI50: 3650 nM
  TGI: 17.4 µM
SK-MEL-28 melanoma
  GI50: 1590 nM
  TGI: 3.55 µM
MALME-3M melanoma
  GI50: 871 nM
  TGI: 2.18 µM
TK-10 renal
  GI50: 2.62 µM
  TGI: 8.07 µM
A549 NSCLC
  GI50: 1580 nM
  TGI: 3.5 µM
NCI-H522 lung
  GI50: 1460 nM
  TGI: 3.25 µM

## CN(C)c1nc(=Nc2cccc(Cl)c2)ss1
KM12 colon
  TGI: 43.7 µM
SW-620 colon
  TGI: 18.8 µM
ACHN renal
  TGI: 37.2 µM
SN12C renal
  TGI: 25.4 µM
SF-295 CNS
  TGI: 56.5 µM
SK-MEL-28 melanoma
  TGI: 25.8 µM
MALME-3M melanoma
  TGI: 27.1 µM
TK-10 renal
  TGI: > 100 µM
A549 NSCLC
  TGI: 76.4 µM
NCI-H522 lung
  TGI: 15 µM

## COc1cccc(NC(=O)c2sc3nc4c(cc3c2N)C(=O)CCC4)c1
KM12 colon
  GI50: 56.9 nM
  TGI: > 100 µM
SW-620 colon
  GI50: 57.1 nM
  TGI: > 100 µM
ACHN renal
  GI50: 0.568 µM
  TGI: > 100 µM
SN12C renal
  GI50: 461 nM
  TGI: > 100 µM
SF-295 CNS
  GI50: 81.8 nM
  TGI: > 100 µM
SK-MEL-28 melanoma
  GI50: 810 nM
  TGI: > 100 µM
MALME-3M melanoma
  GI50: 108 nM
  TGI: > 100 µM
TK-10 renal
  GI50: > 100 µM
  TGI: > 100 µM
A549 NSCLC
  GI50: 103 nM
  TGI: > 100 µM
NCI-H522 lung
  GI50: 49.9 nM
  TGI: 2.41 µM

## CN(C)C=C1C(Cl)=C(C=O)CC(C=O)=C1Cl
KM12 colon
  TGI: 22.1 µM
SW-620 colon
  TGI: 7.3 µM
ACHN renal
  TGI: 26.4 µM
SN12C renal
  TGI: > 100 µM
SF-295 CNS
  TGI: 41.7 µM
SK-MEL-28 melanoma
  TGI: 22.6 µM
MALME-3M melanoma
  TGI: 24.4 µM
TK-10 renal
  TGI: 31.8 µM
A549 NSCLC
  TGI: > 100 µM
NCI-H522 lung
  TGI: 4.14 µM
